Reference: patent US20090233841A1, “ANALGESIC CONJUGATES” (Regents of the University of Minnesota, priority 2005, published 2009)
“Also recorded” adds a separate entry of the source.

What was measured:
mice = assay: Conditioned place preference (CPP); assay type: in vivo, mouse; details: for conditioned place preference: IV; for conditioned place preference (summary statement): dose not restated
Experimental: Conditioned place preference (CPP) is a technique used to measure the rewarding properties of a drug. Two sides of the CPP apparatus have both visual and tactile differences, so that a mouse can tell the difference between sides. On the first day of testing, the time each mouse spends in either side of the apparatus is measured. For the next three days, the drug is “paired” with one side or the other by injecting the mouse and immediately confining it to that side. On the final day, the amount of time the mouse spends in the drug-paired side is determined and the percent change is calculated. If the percent change is positive, the drug is thought to be rewarding and likely to be abused by humans.
Methods The CPP apparatus used was a plastic box, approximately 12 inches×6 inches×6 inches (1/w/h). One half of the box was transparent with a scored or textured floor and the other half of the box had blue vertical stripes with a smooth floor. The box was divided such that the mice could go from one side to the other through an opening or be confined to one side.
Preconditioning On day 1, each mouse was allowed to explore both sides of the box for 15 minutes to expose them to the novel environment. On day 2, each mouse was placed into the box for 15 minutes and the amount of time the mouse spent in each side of the box was recorded. Mice that spend more than 9 minutes in one side of the box are excluded (two of 32 mice were excluded).
Conditioning On day 3, each mouse was given two sets of IV injections. First, the mice were injected with saline and randomly confined to one side of the box for 30 minutes. The mice were then injected with the drug (or saline, for control mice) and confined to the other side of the box (“drug-paired side”) for 30 minutes. This conditioning paradigm was repeated for three days.
Postconditioning On day 6, the amount of time the mouse spent in each side of the box was recorded. For the results, the amount of time the mouse spent in the drug-paired side during preconditioning was subtracted from the time spent in the drug-paired side during post-conditioning to reach a “score”: Score=Postconditioning time in drug-paired side-Preconditioning time spent in drug-paired side.
FIG. 1 depicts the percent change in time spent in the drug-paired side. The asterisks in the graph indicate significant difference from saline (p<0.05).

male ICR mice [1] = assay: Physical dependence: naloxone-precipitated withdrawal jumping after chronic ICV infusion; assay type: in vivo, mouse; details: for physical dependence on chronic ICV administration: 3-day ICV infusion, naloxone-precipitated jumping; for # of Jumps (SEM), naloxone-precipitated withdrawal: average jumps in 10 minutes after naloxone 1 mg/kg sc, after 3-day ICV infusion
Experimental: (§1) Chronic administration To investigate tolerance and dependence associated with these conjugates, chronic ICV administration studies were performed. The compound of interest was administered ICV via a cannula using an osmotic minipump for 3 days, as previously described (Gomori et al., 2003; Mashiko et al., 2003). Withdrawal was measured by administering naloxone (1 mg/kg; subcutaneous (sc)) and counting the naloxone-precipitated jumps for 10 minutes. Tolerance was determined by administering challenge doses of the compound after chronic infusion for 3 days, and determining the chronic ED50 value at that time.
(§2) Chronic ICV infusion. Osmotic minipumps (model 1003D, Alzet, Durect Corporation, Cupertino, Calif.) were filled with saline or the drug to be tested. The dose of each drug was twelve times its ED50 (nmol)/hour. The minipumps were connected by a 1.6-1.8 cm length of PE-60 tubing to a 3-mm long cannula (osmotic pump connector cannula, Plastics One, Roanoke, Va.) and primed in sterile saline at 37° C. overnight.
(§3) The next day, mice were anesthetized with Avertin (2,2,2-tribromoethanol (370 mg/kg, IP)/tert amyl alcohol (0.16 mg/kg, IP)) before surgery. The scalp was shaved and an incision was made along the midline of the scalp. Hemostats were used to make a pocket under the skin between the shoulder blades. The skull was scraped clean of periosteum so that the cannula pedestal would properly adhere to the skull. A micro drill (Fine Science Tools Inc., Foster City, Calif.) was used to drill a hole approximately 1.6 mm lateral and 0.6 mm caudal to bregma. The minipump was placed between the shoulder blades, the cannula was inserted in the drilled hole into the lateral ventricle, and the cannula pedestal was affixed to the skull with cyanoacrylate glue. The animals were allowed to recover on a heating pad (Fine Science Tools, Foster City, Calif.) and were returned to their cages in the animal facility for three days.
Testing for dependence and tolerance. The development of physical dependence was assessed by quantifying withdrawal jumping observed during precipitated withdrawal (Way et al., 1969) on the fourth day after surgery. Mice were injected with naloxone (1 mg/kg, sc) and placed into Plexiglas cylinders for 10 minutes. During those 10 minutes, vertical jumps were counted as withdrawal signs.

male ICR mice [2] = assay: Tolerance: tail flick ED50 after 3-day chronic ICV infusion (osmotic minipump); assay type: in vivo, mouse; details: for tolerance on chronic ICV administration: 3-day ICV infusion; for Chronic ED50 nmol (95% C.L.): compound chronically administered ICV for 3 days, then challenge doses; for Saline ED50 nmol (95% C.L.): saline chronically administered ICV for 3 days, then challenge doses of compound
Experimental: as §1, §2, §3
To test the degree of tolerance developed, the osmotic minipump was removed and the mice were returned to their cages for four hours. The mice were then injected with the test drug into the contralateral lateral cerebral ventricle and antinociception was measured with the tail flick test as described above.

male ICR mice [3] = assay: Mouse tail flick assay after IV administration; details: for decrease in potency when administering IV versus ICV: tail flick ED50 IV versus ICV
Experimental: Antinociceptive testing. Antinociception was evaluated by the radiant heat tail flick assay (D'Amour et al., 1941). Briefly, a beam of light was focused on the mouse tail and the time until the tail flicked was measured. Each animal served as its own control and was used only once. Mice were tested once before injection (control time). After injection, the mice were tested at the time of peak drug response (drug time), as determined by pilot time course studies. The light intensity was adjusted so that control times were between 1.5 and 2.5 s. A 10 second cutoff drug time was set to minimize the risk of tissue damage. Percent maximum possible effect (% MPE) was calculated as follows (Dewey et al., 1970): […]
Graded dose response curves of at least 4 doses with at least 8 mice per dose were generated from the % MPE data.
Methods Drugs were administered IV via the tail vein in a volume of 100 μl to male ICR mice. Fifteen minutes later, antinociception was measured by the tail flick assay and charcoal meal (300 μl, oral) was administered by gavage. Thirty minutes after the charcoal meal., the mice were sacrificed by halothane overdose and the distance the charcoal traveled relative to the entire length of the GI tract was compared to the distance traveled in control animals injected with saline. The conjugates tested (MDAN-16, MDAN-19, MDAN-20, and MDAN-21) had linker lengths of 19, 23, 24, and 25 Å.

male ICR mice [4] = assay: Mouse radiant heat tail flick assay after acute ICV administration; assay type: in vivo; details: for ED50 nmol (95% C.L.), antinociceptive potency: mouse tail flick, acute ICV administration, conjugates and coadministration; for ED50 ICV (nmol): tail flick, Table 2; for effect of naltrindole pretreatment on ED50 / acute analgesic activity: pretreatment with the delta antagonist naltrindole
Experimental: Acute drug administration. Drugs were dissolved in sterile saline (0.9% NaCl). Animals were anesthetized with halothane and drugs were administered with a Hamilton syringe mated to a shortened (3 mm) 27-g needle in a volume of 4 μl by ICV injection into the lateral cerebral ventricle (Haley et al., 1957). The injection site was 1.6 mm lateral and 0.6 mm caudal to bregma.
Antinociceptive testing. […] Mice were tested once before injection (control time).

male ICR mice [5] = assay: GI transit inhibition (charcoal meal) after IV administration; assay type: in vivo, mouse

Row | Structure (SMILES) | conditioned place preference (mice; 4× the ED90 analgesic dose) | conditioned place preference (summary statement) (mice) | # of Jumps (SEM), naloxone-precipitated withdrawal (male ICR mice [1]) | Chronic ED50 nmol (95% C.L.) (male ICR mice [2]) | Saline ED50 nmol (95% C.L.) (male ICR mice [2]) | decrease in potency when administering IV versus ICV (male ICR mice [3]) [×] | ED50 IV (nmol) (male ICR mice [3]; tail flick, IV) | ED50 nmol (95% C.L.), antinociceptive potency (male ICR mice [4]) | ED50 ICV (nmol) (male ICR mice [4]) | effect of naltrindole pretreatment on ED50 / acute analgesic activity (male ICR mice [4]) | also measured
1 | CN1CCC23c4c5ccc(O)c4OC2C(NC(=O)COCC(=O)NCCCCCCCNC(=O)COCC(=O)Nc2cccc4c6c([nH]c24)C2Oc4c(O)ccc7c4C24CCN(CC2CC2)C(C7)C4(O)C6)CCC3(O)C1C5 (stereo not shown) [Compound 8] | did not display a place preference | does not produce conditioned place preference | 3.5 (1.7) | 0.10 (0.09-0.11) nmol | 0.10 (0.09-0.11) nmol | ~40 | 3.3 (3.0-3.6) nmol | 0.08 (0.06-0.10) nmol | 0.08 (0.06-0.10) nmol | – | physical dependence on chronic ICV administration (male ICR mice [1]; listed as MDAN-21): no tolerance or dependence was observed; also recorded: produced no tolerance or physical dependence; tolerance on chronic ICV administration (male ICR mice [2]; listed as MDAN-21): no tolerance or dependence was observed; also recorded: produced no tolerance or physical dependence; potency relative to morphine when given IV (male ICR mice [3]; tail flick, IV): 50 fold
2 | CN1CCC23c4c5ccc(O)c4OC2C(NC(=O)COCC(=O)NCCNC(=O)COCC(=O)Nc2cccc4c6c([nH]c24)C2Oc4c(O)ccc7c4C24CCN(CC2CC2)C(C7)C4(O)C6)CCC3(O)C1C5 (stereo not shown) [Compound 3] | suggested a place preference | – | 30 (23) | 4.72 (3.47-5.91) nmol | 1.62 (1.35-1.89) nmol | – | – | 1.79 (1.54-2.04) nmol | – | This effect was not observed | physical dependence on chronic ICV administration (male ICR mice [1]; listed as MDAN-16): produced both tolerance and dependence; also recorded: both tolerance and physical dependence developed; # of Jumps (SEM), naloxone-precipitated withdrawal (male ICR mice [1]; listed as MDAN-16): 30; tolerance on chronic ICV administration (male ICR mice [2]; listed as MDAN-16): produced both tolerance and dependence; also recorded: both tolerance and physical dependence developed; fold increase in ED50 value after chronic ICV infusion (male ICR mice [2]; three-day ICV infusion): 2.6 fold
3 | CN1CCC23c4c5ccc(O)c4OC2C(NC(=O)COCC(=O)NCCCCCNC(=O)COCC(=O)Nc2cccc4c6c([nH]c24)C2Oc4c(O)ccc7c4C24CCN(CC2CC2)C(C7)C4(O)C6)CCC3(O)C1C5 (stereo not shown) [Compound 6] | did not display a place preference | – | 3.6 (1.7) | 0.40 (0.33-0.47) nmol | 0.42 (0.37-0.47) nmol | – | – | 0.43 (0.36-0.50) nmol | – | acute analgesic activity was similar to the control ligand MA-19 | physical dependence on chronic ICV administration (male ICR mice [1]; listed as MDAN-19): no tolerance or dependence was observed; also recorded: produced no tolerance or physical dependence; tolerance on chronic ICV administration (male ICR mice [2]; listed as MDAN-19): no tolerance or dependence was observed; also recorded: produced no tolerance or physical dependence
4 | CN1CC[C@]23c4c5ccc(O)c4O[C@H]2[C@@H](O)C=C[C@H]3[C@H]1C5 [Morphine, reference compound] | demonstrated conditioned place preference | produced conditioned place preference | 100 (15) | 26.80 (20.82-32.78) nmol | 4.54 (3.51-5.56) nmol | ~40 | 168 (146-178) nmol | – | 4.1 (3.7-4.8) nmol | – | conditioned place preference (mice; 2× the ED90 analgesic dose): exhibiting a conditioned place preference; efficacy in the GIT inhibition assay (male ICR mice [5]): fully efficacious; GIT inhibition ED50 (male ICR mice [5]; charcoal meal 15 min after drug): 129 (115-142) nmol; # of Jumps (SEM), naloxone-precipitated withdrawal (male ICR mice [1]; listed as morphine): 100±15; efficacy in the TF test (male ICR mice [3]; IV, tail flick 15 min after drug): fully efficacious
